Laboratory results from patent US20060057669A1, “Inactive transcription factor tif-ia and uses thereof” (priority 2002, published 2006).

Columns and labels:
TIF-IB/SL1 = assay: Co-immunoprecipitation of TIF-IB/SL1 with TIF-IA mutants from HEK293T cells; format: binding, human
Protocol: (B) A mutant that mimics phosphorylation of TIF-IA at S199 fails to interact with Pol I and TIF-IB. FLAG-tagged wild-type TIF-IA or the indicated point mutants were overexpressed in HEK293T cells and immunoprecipitated from cell lysates with anti-FLAG antibodies (M2 agarose). Co-precipitated Pol I and TIF-IB/SL1 were visualized on Western blots with anti-RPA116 and anti-TAFI110 antibodies.
Immunoprecipitations were carried out from human cells overexpressing FLAG-tagged TIF-IA. Cells were lysed in IP buffer, cleared by centrifugation at 10,000×g for 30 min, and the supernatants were incubated for 4 hr at 4° C. with anti-FLAG (M2) agarose (Sigma). To analyze the interaction of TIF-IA with TIF-IB/SL1, the immunoprecipitates were washed with IP buffer and TIF-IB/SL1 was visualized on immunoblots with α-TAFI110 antibodies. To monitor the interaction of TIF-IA with Pol I, the immunoprecipitates were washed with IP buffer containing 600 mM NaCl and Pol I was analyzed on Western blots using antibodies against the second largest subunit of Pol I (RPA116) or PAF67 (Seither et al., J. Biol. Chem. 382 (2001), 1163-1170).
Given the importance of mTOR-mediated alterations in the phosphorylation pattern on TIF-IA activity, one could predict that either phosphorylation of S199, dephosphorylation of S44 or both regulate the interaction of TIF-IA with the Pol I transcription apparatus. It was therefore examined whether the S→A or S→D point mutant(s) were capable of interacting with Pol I and/or TIF-IB/SL1. For this, TIF-IA was precipitated from cells overexpressing either FLAG-tagged wild-type TIF-IA or the respective S199 and S44 mutant(s), and co-precipitated Pol I and TIF-IB/SL1 were visualized on Western blots.

TIF-IA = assay: In vitro transcription assay of TIF-IA purified from treated cells, in nuclear extract from density-arrested FM3A cells; format: biochemical
Protocol: (A) TIF-IA activity in starved and serum-stimulated cells. The indicated amounts of TIF-IA purified from starved NIH3T3 cells (lanes 2-4) or cells that were stimulated by serum in the absence (lanes 5-7) or presence of PD98059 (lanes 8-10) were assayed for their capability to restore transcription of a nuclear extract from density-arrested FM3A cells (lane 1). The amount and purity of TIF-IA were estimated on silver-stained SDS-polyacrylamide gels (data not shown).
FLAG-tagged TIF-IA was purified from untreated (lanes 2-3) or PD98059-treated HEK293T cells (lanes 4-5). The indicated amounts of TIF-IA were assayed for their capability to restore transcription of a nuclear extract from density-arrested FM3A cells (lane 1). The amount of TIF-IA was estimated on silver-stained SDS-polyacrylamide gels (data not shown).
20 and 40 ng of TIF-IA that was immunopurified from untreated (lanes 2, 3) and rapamycin-treated cells (lanes 4, 5) were added to transcription reactions containing nuclear extracts (30 μg) from density-arrested cells.
Nuclear extracts were prepared from exponentially growing (8×10^5 cells/ml), density-arrested or PD98059-treated (CN Bioscience, Bad Soden, Germany) 40 μM, 0.5 hr) or rapamycin-treated FM3A cells (ATCC, Manassas, USA). […] After incubation for 60 min at 30° C., RNA was extracted and analyzed on non-denaturing 5% polyacrylamide gels […]

Compound	interaction with TIF-IB/SL1 (co-precipitated TAFI110) (TIF-IB/SL1)	transcriptional activity of TIF-IA from treated cells (TIF-IA; NIH3T3 cells stimulated with serum in the presence of PD98059)	transcriptional activity of TIF-IA from treated cells (TIF-IA; unsynchronized cells treated for 30 min with PD98059)
TIF-IA: wild-type human transcription initiation factor TIF-IA, accession No. AJ272050	interacted with both Pol I and TIF-IB/SL1		
COc1cccc(-c2cc(=O)c3ccccc3o2)c1N [PD98059]		TIF-IA remained inactive	transcriptionally inactive
